Source: the Deep4Chem optical property database
Blank lines part the entries; values can stand above or below the compound they belong to.

Test: solvent given as SMILES

absorption maximum (in CC#N): 339 nm | absorption maximum (in CN(C)C=O): 353 nm | absorption maximum (in ClCCl): 344 nm
Structure (SMILES): CCN(CC)c1ccc(/C=N/CC/N=C/c2ccc(N(CC)CC)cc2O)c(O)c1

absorption maximum (in CO): 425 nm
Structure (SMILES): c1ccc(N(c2ccccc2)c2ccc(-c3ncc(-c4ccc(-c5ccc(-c6cnc(-c7ccc(N(c8ccccc8)c8ccccc8)cc7)s6)s5)s4)s3)cc2)cc1

absorption maximum (in C1CCCCC1): 427 nm
Structure (SMILES): Cc1cc(C)c(B2c3cc(C(C)(C)C)cc4ccc5ccc6cc(C(C)(C)C)cc2c6c5c34)c(C)c1

absorption maximum (in CC#N): 305 nm | absorption maximum (in ClCCl): 305 nm
Structure (SMILES): COc1ccc2nc(N)sc2c1

absorption maximum (in C1CCOC1): 341 nm
Structure (SMILES): c1ccc(-c2ccc(-c3ccccc3)s2)cc1

absorption maximum (in C1CCOC1): 733 nm
Structure (SMILES): CCCCCCc1ccsc1-c1ccc2c(c1)C1=[N+]3C2=Cc2c4ccc(-c5sccc5CCCCCC)cc4c4n2[B-]3(Oc2ccccc21)Oc1ccccc1-4 (stereo not drawn)

absorption maximum (in C1COCCO1): 400 nm
Structure (SMILES): N#Cc1ccc(/C=C2\C=C(c3ccccc3)OC2=O)cc1

absorption maximum (in O): 299 nm
Structure (SMILES): Cc1cc(-c2ccc(-c3n(C)c4ccccc4[n+]3C)cc2)ccc1-c1ccc(-c2n(C)c3ccccc3[n+]2C)cc1

absorption maximum (in C1CCOC1): 316 nm
Structure (SMILES): CC(C)(C)c1ccc(-c2c(-c3ccc(N(c4ccccc4)c4ccccc4)cc3)cc(-c3ccc(N(c4ccccc4)c4ccccc4)cc3)c(-c3ccc(C(C)(C)C)cc3)c2-c2ccc(C(C)(C)C)cc2)cc1

absorption maximum (in ClCCl): 418 nm
Structure (SMILES): Clc1ccc(N2c3sc4ccccc4c3Sc3c2sc2ccccc32)cc1

absorption maximum (in CS(C)=O): 399 nm | absorption maximum (in O): 396 nm
Structure (SMILES): O=c1c2cc(S(=O)(=O)O)ccc2[nH]c2ccc(S(=O)(=O)O)cc12

absorption maximum (in C1CCOC1): 337.3 nm | absorption maximum (in CC#N): 335.33 nm | absorption maximum (in CCCCCCO): 343.23 nm | absorption maximum (in CCO): 338.86 nm | absorption maximum (in CCOC(C)=O): 335.84 nm | absorption maximum (in CS(C)=O): 340.34 nm | absorption maximum (in O): 341.09 nm | absorption maximum (in c1ccccc1): 339.29 nm
Structure (SMILES): O=C1CCCc2c1[nH]c1cc3c(cc21)OCO3

absorption maximum (in ClC(Cl)Cl): 638 nm
Structure (SMILES): CCCCCCCCOc1ccc(-c2c3c4n(c(-c5ccc(OCCCCCCCC)cc5)c3c3n2[B-](F)(F)[n+]2ccccc2N=3)[B-](F)(F)[n+]2ccccc2N=4)cc1

absorption maximum (in CC#N): 379 nm
Structure (SMILES): Cc1cc2nc3c(=O)[nH]c(=O)n(C)c3nc2cc1C

absorption maximum (in C1CCOC1): 612 nm | absorption maximum (in CS(C)=O): 622 nm | absorption maximum (in ClCCl): 606 nm
Structure (SMILES): COc1cc(OC)cc(C2=C3C(C)=C(I)C(C)=[N+]3[B-](F)(F)n3c(/C=C/c4c[nH]c5ccc([N+](=O)[O-])cc45)c(I)c(C)c32)c1

absorption maximum (in C1CCOC1): 407 nm
Structure (SMILES): COc1cc2c(cc1-c1ccncc1)Cc1c3c(c4c(c1-2)-c1cc(OC)c(-c2ccncc2)cc1C4)C(=O)N(CCC(C)C)C3=O

absorption maximum (in ClCCl): 357 nm
Structure (SMILES): Cc1cc(=O)cc(-c2ccc(-c3nc4ccccn4c3NC3CCCCC3)cc2)o1

absorption maximum (in CC#N): 403 nm | absorption maximum (in CCCCCC): 447 nm | absorption maximum (in CO): 404 nm | absorption maximum (in ClC(Cl)Cl): 430 nm | absorption maximum (in ClCCl): 421 nm
Structure (SMILES): F[B-]1(F)n2c(nc3c4ccccc4c4ccccc4c32)-c2cccc[n+]21

absorption maximum (in CCO): 382 nm
Structure (SMILES): Cc1c(COC(=O)Cc2c[nH]c3ccccc23)n2c(OCC(=O)Cc3c[nH]c4ccccc34)c(C)c(=O)n2c1=O

absorption maximum (in ClC(Cl)Cl): 412 nm
Structure (SMILES): COc1cc(C2CC(=O)Oc3c2c2nc4ccc(C)cc4nc2c2ccccc32)cc(OC)c1OC (stereo not drawn)

absorption maximum (in CCO): 387 nm
Structure (SMILES): Cc1c(COC(=O)c2ccc(I)cc2)n2c(OCC(=O)c3ccc(I)cc3)c(C)c(=O)n2c1=O

absorption maximum (in CC#N): 394 nm | absorption maximum (in ClCCl): 394 nm
Structure (SMILES): COC(=O)c1cc(=O)n(C)c2cc(-c3cccc(OC)c3)sc12

absorption maximum (in ClCCl): 351 nm
Structure (SMILES): CCCCn1c2c(-c3ccc(N(c4ccccc4)c4ccccc4)cc3)cc(C#N)cc2c2cc(C#N)cc(-c3ccc(N(c4ccccc4)c4ccccc4)cc3)c21

absorption maximum (in ClC(Cl)Cl): 410 nm
Structure (SMILES): COc1ccc(-c2oc3cccc4c5c(-c6ccc(OC)c(OC)c6)c(=N)oc6cccc(c2c34)c65)cc1OC

absorption maximum (in CO): 540 nm
Structure (SMILES): CCOC(=O)CCCCCn1c2ccc(F)cc2c(=O)c2cc3c(cc21)c(=O)c1cc(F)ccc1n3CCCCCC(=O)OCC

The remaining lines, values behind:

Structure (SMILES): CC(=O)c1ccc2ccc3cccc4ccc1c2c34
absorption maximum (in C1CCOC1): 384 nm | absorption maximum (in CC#N): 382 nm | absorption maximum (in CCCCCC): 384 nm | absorption maximum (in CCO): 383 nm | absorption maximum (in CN(C)C=O): 384 nm | absorption maximum (in CO): 385 nm | absorption maximum (in Cc1ccccc1): 387 nm | absorption maximum (in ClCCl): 385 nm

Structure (SMILES): Cc1cc(C)c(C2=C3C=C(/C=C/C(=O)OC(C)(C)C)C=[N+]3[B-](F)(F)n3cccc32)c(C)c1
absorption maximum (in ClCCl): 538 nm

Structure (SMILES): O=C(c1ccccc1)c1cc2ccc1CCc1ccc(c(-c3ccc(N(c4ccccc4)c4ccccc4)cc3)c1)CC2
absorption maximum (in Cc1ccccc1): 312 nm

Structure (SMILES): O=[N+]([O-])c1ccc(F)cc1C1CC(c2cccc3ccccc23)=NN1c1ccccc1 (stereo not drawn)
absorption maximum (in C1CCCCC1): 365 nm | absorption maximum (in C1CCOC1): 374 nm | absorption maximum (in C1COCCO1): 372 nm | absorption maximum (in CC#N): 367 nm | absorption maximum (in CC(C)O): 370 nm | absorption maximum (in CCOC(C)=O): 371 nm | absorption maximum (in CCOCC): 363 nm | absorption maximum (in CO): 372 nm | absorption maximum (in Cc1ccccc1): 368 nm | absorption maximum (in ClC(Cl)Cl): 363 nm | absorption maximum (in O): 375 nm

Structure (SMILES): COc1ccc2c(=O)c3c([nH]c2c1)-c1ccccc1NC3(C)C
absorption maximum (in C1CCOC1): 404 nm | absorption maximum (in CC#N): 415 nm | absorption maximum (in CCCCO): 424 nm | absorption maximum (in CCCO): 421 nm | absorption maximum (in CCO): 424 nm | absorption maximum (in CCOC(C)=O): 395 nm | absorption maximum (in CN(C)C=O): 421 nm | absorption maximum (in CO): 424 nm | absorption maximum (in CS(C)=O): 424 nm | absorption maximum (in Cc1ccccc1): 397 nm | absorption maximum (in ClC(Cl)(Cl)Cl): 404 nm | absorption maximum (in ClCCl): 403 nm | absorption maximum (in O): 383 nm | absorption maximum (in c1ccccc1): 402 nm

Structure (SMILES): CN(C)CCN(Cc1c2ccccc2cc2ccccc12)c1ccc([N+](=O)[O-])cc1[N+](=O)[O-]
absorption maximum (in C1CCCCC1): 372 nm | absorption maximum (in C1CCOC1): 394 nm | absorption maximum (in CC#N): 392 nm | absorption maximum (in CC(C)=O): 392 nm | absorption maximum (in CCO): 394 nm | absorption maximum (in CN(C)C=O): 395 nm | absorption maximum (in CO): 391 nm | absorption maximum (in CS(C)=O): 397 nm | absorption maximum (in ClC(Cl)Cl): 393 nm | absorption maximum (in ClCCl): 394 nm

Structure (SMILES): CCCCn1c2ccc3ccc4ccccc4c3c2c2c3c(ccc4ccccc43)ccc21
absorption maximum (in ClCCl): 337 nm

Structure (SMILES): CCN=C=S
absorption maximum (in CCCCCC): 250 nm

Structure (SMILES): CC(C)(C)c1ccc2oc(-c3ccc(-c4nc5cc(C(C)(C)C)ccc5o4)s3)nc2c1
absorption maximum (in C1CCCCC1): 372 nm | absorption maximum (in C1CCOC1): 374 nm | absorption maximum (in CC1CCCCC1): 373 nm | absorption maximum (in CC#N): 371 nm | absorption maximum (in CCCCO): 375 nm | absorption maximum (in CCO): 373 nm | absorption maximum (in CN(C)C=O): 374 nm | absorption maximum (in Cc1ccccc1): 376 nm | absorption maximum (in Clc1ccccc1Cl): 379 nm | absorption maximum (in c1ccccc1): 377 nm

Structure (SMILES): COc1cc(OC)cc(C2=C3C(C)=C(I)C(/C=C/c4c[nH]c5ccc([N+](=O)[O-])cc45)=[N+]3[B-](F)(F)n3c(/C=C/c4c[nH]c5ccc([N+](=O)[O-])cc45)c(I)c(C)c32)c1
absorption maximum (in C1CCOC1): 695 nm | absorption maximum (in CS(C)=O): 712 nm | absorption maximum (in ClCCl): 690 nm

Structure (SMILES): COC(=O)c1ccc(/C=C/C(F)(F)F)c(N)c1
absorption maximum (in C1CCOC1): 372 nm

Structure (SMILES): O=C1CC(=O)Nc2cc(Cl)ccc2N1
absorption maximum (in CS(C)=O): 298 nm

Structure (SMILES): Cc1cc2cc(N3c4ccccc4Oc4ccccc43)ccc2c(=O)o1
absorption maximum (in Cc1ccccc1): 395 nm

Structure (SMILES): c1ccc(-c2cc(-c3ccc(N4c5ccccc5C(c5ccccc5)(c5ccccc5)c5ccccc54)cc3)nc(-c3ccccc3)n2)cc1
absorption maximum (in Cc1ccccc1): 368.88 nm

Structure (SMILES): COc1ccccc1-c1nc2c3ccccc3c3ccccc3c2n1-c1ccc(C)cc1
absorption maximum (in Cc1ccccc1): 359 nm

Structure (SMILES): c1cc2ccc3ccc4cc3c2cc1c1ccc2c(c1)c1cc(ccc1[C@]13OCCO[C@]21OCCO3)c1ccc2c(c1)c1cc4ccc1[C@]13OCCO[C@]21OCCO3
absorption maximum (in Cc1ccccc1): 353 nm

Structure (SMILES): CCCCN(CCCC)c1ccc2c#cc3cc4c#cc5ccc(C(F)(F)F)cc5c#cc#cc5cc(N(CCCC)CCCC)ccc5c#cc4cc3c#cc3ccc(C(F)(F)F)cc3c#cc#cc2c1
absorption maximum (in ClCCl): 472 nm

Structure (SMILES): Cc1ccc(C(=O)NN2C3=C(CC4=C2CCCC4=O)C(=O)CCC3)cc1
absorption maximum (in C1CCOC1): 366 nm | absorption maximum (in CC#N): 368 nm | absorption maximum (in CC(C)=O): 366 nm | absorption maximum (in CCCCCO): 376 nm | absorption maximum (in CO): 374 nm | absorption maximum (in ClC(Cl)Cl): 370 nm | absorption maximum (in ClCCl): 366 nm

Structure (SMILES): CC(=O)[B-]1(C(C)=O)OC(c2ccccc2)=CC(c2ccccc2)=[O+]1
absorption maximum (in CC#N): 377 nm | absorption maximum (in ClC(Cl)(Cl)Cl): 382 nm

Structure (SMILES): c12c3c4c5c1c1c6c7c2c2c8c3c3c9c4c4c%10c5c5c1c1c6c6c%11c%12c%13c%14c%15c%16c%17c%14c%14c%18c%13c%11c1c1c5c%10c5c(c%14c%10c%17c%11c%13c%16c%14c%16c%15c%12c%12c%16c(c2c7c%126)c2c8c3c(c%13c%142)c2c9c4c5c%10c%112)c%181
absorption maximum (in CC1CCCCC1): 470 nm

Structure (SMILES): COc1cc2c(cc1-c1ccsc1)Cc1c3c(c4c(c1-2)-c1cc(OC)c(-c2ccsc2)cc1C4)C(=O)N(CCC(C)C)C3=O
absorption maximum (in C1CCOC1): 417 nm

Structure (SMILES): F[B-]1(F)N2C=CN=CC2=[N+]2[N+]1=Cc1c(-c3ccccc3)cc(-c3cccs3)n1[B-]2(F)F
absorption maximum (in ClCCl): 533 nm

Structure (SMILES): C(=C\c1cc[n+]2ccc(/C=C/c3cc[nH]c3)cc2c1)/c1cc[nH]c1
absorption maximum (in CO): 457 nm

Structure (SMILES): CC[N+]1(CC)CN2C(=N1)C(C(=O)O)=Cc1cc(OC)ccc12
absorption maximum (in O): 394 nm

Structure (SMILES): C(#Cc1nccnc1C#Cc1ccccc1)c1ccccc1
absorption maximum (in CC#N): 315 nm

Structure (SMILES): CCOc1cccc(-c2nc3c(c4c2-c2ccccc2CC4)-c2ccccc2CC3)c1O
absorption maximum (in ClCCl): 335 nm

Structure (SMILES): CCCCc1ccc(C#Cc2ccc3nc4ccc(C#Cc5ccc(CCCC)cc5)cn4c(=O)c3c2)cc1
absorption maximum (in ClCCl): 383 nm

Structure (SMILES): CCCCOc1ccc(-c2oc3cc4n(c3c2-c2ccc(OCCCC)cc2)[B-](F)(F)[N+]2=Cc3cc5oc(-c6ccc(OCCCC)cc6)c(-c6ccc(OCCCC)cc6)c5n3[B-](F)(F)[N+]2=C4)cc1
absorption maximum (in C1CCOC1): 596 nm | absorption maximum (in CN(C)C=O): 593 nm | absorption maximum (in CS(C)=O): 594 nm | absorption maximum (in Cc1ccccc1): 608 nm | absorption maximum (in ClC(Cl)Cl): 610 nm | absorption maximum (in ClCCl): 606 nm
